Tested on: Cercospora arachidicola
Assay: Peanut field trial, in-furrow soil application at planting, leafspot disease severity
Assay type: in vivo, Cercospora arachidicola on peanut (Arachis hypogaea)
Settings: 63 days after planting, peanut Ga 09b, COMPOUND 1 SC450 200 g AI/ha, Fluopyram SC500 250 g AI/ha
Procedure: A peanut field trial was carried out in […], Georgia, USA, to evaluate the efficacy of different compounds against the leafspot disease Cercospora arachidicola. Plot borders (peanuts) were planted in early May and left untreated until there was significant leafspot infection on the borders.
The peanuts were then planted in July and treatments applied in-furrow at the same day. The disease occurred mid of September and an assessment on disease severity (% infected area) was done 63 days after planting.
Pest Severity, 63 Days after Planting

Structure (SMILES): O=C(NCCc1ncc(C(F)(F)F)cc1Cl)c1ccccc1C(F)(F)F [Fluopyram]
- % efficacy based on pest severity: 52.64%
- % efficacy based on pest severity (listed as commercial standard compound 2): 53%
- Pest severity (%) (% infected area): 15,A %

— patent US20230045196A1, “METHODS OF CONTROLLING OR PREVENTING INFESTATION OF PEANUT PLANTS BY PHYTOPATHOGENIC MICROORGANISMS” (SYNGENTA CROP PROTECTION AG, priority 2019, published 2023)
